Results from patent US9738612B2, “Methylacryloyl benzimidazolone derivative and anti-tumour use thereof” (SHANGHAI NATURE STANDARD R&D AND BIOTECH CO., LTD, priority 2014, dated 2017).

Columns and labels:
Test in all cases: Tumor-associated kinase inhibition test
Type in all cases: biochemical
Details in all cases: read-out: Inhibitory rate (%)
ALK(h) = target: T1, ALK(h) (Homo sapiens, UniProt Q9UM73)
T1 construct: purchased Eurofins Pharma Discovery Services UK Limited (contract assay service)
Excerpt: (§1) Eurofins Pharma Discovery Services UK Limited completed and reported this experiment.

Abl(T315I)(h) = target: T2, Abl(T315I)(h) (Homo sapiens, UniProt P00519, T315I)
T2 construct: purchased Eurofins Pharma Discovery Services UK Limited (contract assay service)
Excerpt: as §1

Abl(h) = target: T3, Abl(h) (Homo sapiens, UniProt P00519)
T3 construct: purchased Eurofins Pharma Discovery Services UK Limited (contract assay service)
Excerpt: as §1

Aurora-A(h) = target: T4, Aurora-A(h) (Homo sapiens, UniProt O14965)
T4 construct: purchased Eurofins Pharma Discovery Services UK Limited (contract assay service)
Excerpt: as §1

Axl(h) = target: T5, Axl(h) (Homo sapiens, UniProt P30530)
T5 construct: purchased Eurofins Pharma Discovery Services UK Limited (contract assay service)
Excerpt: as §1

B-Raf(h) = target: T6, B-Raf(h) (Homo sapiens, UniProt P15056)
T6 construct: purchased Eurofins Pharma Discovery Services UK Limited (contract assay service)
Excerpt: as §1

Bmx(h) = target: T7, Bmx(h) (Homo sapiens, UniProt P51813)
T7 construct: purchased Eurofins Pharma Discovery Services UK Limited (contract assay service)
Excerpt: as §1

CDK1/cyclinB(h) = target: T8, CDK1/cyclinB(h) (Homo sapiens, UniProt P06493)
T8 construct: purchased Eurofins Pharma Discovery Services UK Limited (contract assay service)
Excerpt: as §1

CDK3/cyclinE(h) = target: T9, CDK3/cyclinE(h) (Homo sapiens, UniProt Q00526)
T9 construct: purchased Eurofins Pharma Discovery Services UK Limited (contract assay service)
Excerpt: as §1

CK2(h) = target: T10, CK2(h) (Homo sapiens, UniProt P68400)
T10 construct: purchased Eurofins Pharma Discovery Services UK Limited (contract testing)
Excerpt: as §1

CaMKI(h) = target: T11, CaMKI(h) (Homo sapiens, UniProt Q14012)
T11 construct: purchased Eurofins Pharma Discovery Services UK Limited (contract assay service)
T11 sequence (Q14012 whole entry): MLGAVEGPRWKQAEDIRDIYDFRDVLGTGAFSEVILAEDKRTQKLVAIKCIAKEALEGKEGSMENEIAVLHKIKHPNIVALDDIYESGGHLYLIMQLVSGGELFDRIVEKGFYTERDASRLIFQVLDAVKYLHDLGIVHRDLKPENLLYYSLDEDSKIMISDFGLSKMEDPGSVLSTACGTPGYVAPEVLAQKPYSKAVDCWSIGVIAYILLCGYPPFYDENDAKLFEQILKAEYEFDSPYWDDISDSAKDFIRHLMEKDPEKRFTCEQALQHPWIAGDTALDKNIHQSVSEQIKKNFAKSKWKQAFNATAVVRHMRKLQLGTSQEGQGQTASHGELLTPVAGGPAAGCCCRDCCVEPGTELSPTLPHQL
Excerpt: as §1

CaMKIIβ(h) = target: T12, CaMKIIβ(h) (Homo sapiens, UniProt Q13554)
T12 construct: purchased Eurofins Pharma Discovery Services UK Limited (contract assay service)
Excerpt: as §1

IGF-1R(h), activated = target: T13, IGF-1R(h), activated (Homo sapiens, UniProt P08069)
T13 construct: purchased Eurofins Pharma Discovery Services UK Limited (contract testing)
Excerpt: as §1

IKKα(h) = target: T14, IKKα(h) (Homo sapiens, UniProt O15111)
T14 construct: purchased Eurofins Pharma Discovery Services UK Limited (contract testing)
T14 sequence (O15111 whole entry): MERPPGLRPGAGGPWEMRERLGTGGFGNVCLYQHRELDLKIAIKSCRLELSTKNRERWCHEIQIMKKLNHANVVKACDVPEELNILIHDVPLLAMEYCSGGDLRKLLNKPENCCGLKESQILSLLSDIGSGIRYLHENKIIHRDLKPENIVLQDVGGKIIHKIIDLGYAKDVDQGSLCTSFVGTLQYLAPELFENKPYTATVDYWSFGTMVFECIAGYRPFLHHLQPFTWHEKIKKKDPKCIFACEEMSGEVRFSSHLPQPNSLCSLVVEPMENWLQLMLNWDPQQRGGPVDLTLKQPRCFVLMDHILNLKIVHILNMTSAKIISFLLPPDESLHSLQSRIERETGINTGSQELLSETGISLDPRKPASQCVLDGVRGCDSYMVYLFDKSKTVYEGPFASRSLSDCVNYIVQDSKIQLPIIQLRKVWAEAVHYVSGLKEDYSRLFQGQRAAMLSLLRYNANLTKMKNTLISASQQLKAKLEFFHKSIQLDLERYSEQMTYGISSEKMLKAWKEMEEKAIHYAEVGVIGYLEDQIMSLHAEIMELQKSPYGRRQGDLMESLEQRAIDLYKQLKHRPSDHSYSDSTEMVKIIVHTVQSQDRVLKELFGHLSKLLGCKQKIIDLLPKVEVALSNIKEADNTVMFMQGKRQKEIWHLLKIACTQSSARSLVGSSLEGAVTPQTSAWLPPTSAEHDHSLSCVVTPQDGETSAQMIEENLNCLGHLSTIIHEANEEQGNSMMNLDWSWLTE
Excerpt: as §1

Itk(h) = target: T15, Itk(h) (Homo sapiens, UniProt Q08881)
T15 construct: purchased Eurofins Pharma Discovery Services UK Limited (contract testing)
Excerpt: as §1

JNK1α1(h) = target: T16, JNK1α1(h) (Homo sapiens, UniProt P45983)
T16 construct: purchased Eurofins Pharma Discovery Services UK Limited (contract testing)
Excerpt: as §1

KDR(h) = target: T17, KDR(h) (Homo sapiens, UniProt P35968)
T17 construct: purchased Eurofins Pharma Discovery Services UK Limited
Excerpt: as §1

MAPK1(h) = target: T18, MAPK1(h) (Homo sapiens, UniProt P27361)
T18 construct: purchased Eurofins Pharma Discovery Services UK Limited
T18 sequence (P27361 whole entry): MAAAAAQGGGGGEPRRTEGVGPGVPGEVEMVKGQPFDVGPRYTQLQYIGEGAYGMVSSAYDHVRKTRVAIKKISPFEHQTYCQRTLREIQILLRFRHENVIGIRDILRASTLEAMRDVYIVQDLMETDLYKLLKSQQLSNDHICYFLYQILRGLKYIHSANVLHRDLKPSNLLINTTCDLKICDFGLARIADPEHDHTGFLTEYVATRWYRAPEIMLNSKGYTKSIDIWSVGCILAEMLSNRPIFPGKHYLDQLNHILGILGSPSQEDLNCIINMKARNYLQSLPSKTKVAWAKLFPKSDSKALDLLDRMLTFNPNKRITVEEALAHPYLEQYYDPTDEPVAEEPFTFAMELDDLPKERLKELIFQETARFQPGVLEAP
Excerpt: as §1

MST2(h) = target: T19, MST2(h) (Homo sapiens, UniProt Q13188)
T19 construct: purchased Eurofins Pharma Discovery Services UK Limited
Excerpt: as §1

PAK2(h) = target: T20, PAK2(h) (Homo sapiens, UniProt Q13177)
T20 construct: purchased Eurofins Pharma Discovery Services UK Limited
Excerpt: as §1

PEK(h) = target: T21, PEK(h) (Homo sapiens, UniProt Q9NZJ5)
T21 construct: purchased Eurofins Pharma Discovery Services UK Limited
Excerpt: as §1

[1] = target: T22, PI3Kinase(p110α(H1047R)/p85α)(h) (Homo sapiens, UniProt P42336, H1047R)
T22 construct: purchased Eurofins Pharma Discovery Services UK Limited (contract assay)
Excerpt: as §1

PI3Kinase(p110β/p85α)(h) = target: T23, PI3Kinase(p110β/p85α)(h) (Homo sapiens, UniProt P42338)
T23 construct: purchased Eurofins Pharma Discovery Services UK Limited (contract assay)
Excerpt: as §1

PIP4K2α(h) = target: T24, PIP4K2α(h) (Homo sapiens, UniProt P48426)
T24 construct: purchased Eurofins Pharma Discovery Services UK Limited (contract assay)
Excerpt: as §1

PIP5K1γ(h) = target: T25, PIP5K1γ(h) (Homo sapiens, UniProt O60331)
T25 construct: purchased Eurofins Pharma Discovery Services UK Limited (contract assay)
Excerpt: as §1

PKBγ(h) = target: T26, PKBγ(h) (Homo sapiens, UniProt Q9Y243)
T26 construct: purchased Eurofins Pharma Discovery Services UK Limited
T26 sequence (Q9Y243 whole entry): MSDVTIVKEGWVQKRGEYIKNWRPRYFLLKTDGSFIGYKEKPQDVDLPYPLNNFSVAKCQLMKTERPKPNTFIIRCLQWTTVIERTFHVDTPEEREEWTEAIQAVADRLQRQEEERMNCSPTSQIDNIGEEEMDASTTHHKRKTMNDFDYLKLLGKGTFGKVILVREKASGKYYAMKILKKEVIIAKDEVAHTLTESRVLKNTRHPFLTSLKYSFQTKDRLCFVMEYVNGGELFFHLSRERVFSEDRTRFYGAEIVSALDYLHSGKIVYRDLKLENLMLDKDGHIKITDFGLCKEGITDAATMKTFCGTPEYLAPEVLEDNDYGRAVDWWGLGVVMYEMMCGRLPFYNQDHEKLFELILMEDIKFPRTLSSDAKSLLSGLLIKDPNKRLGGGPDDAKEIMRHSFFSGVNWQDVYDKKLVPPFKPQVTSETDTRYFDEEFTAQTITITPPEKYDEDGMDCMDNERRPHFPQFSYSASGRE
Excerpt: as §1

PKCε(h) = target: T27, PKCε(h) (Homo sapiens, UniProt Q02156)
T27 construct: purchased Eurofins Pharma Discovery Services UK Limited
Excerpt: as §1

PKCη(h) = target: T28, PKCη(h) (Homo sapiens, UniProt P24723)
T28 construct: purchased Eurofins Pharma Discovery Services UK Limited
Excerpt: as §1

PKCθ(h) = target: T29, PKCθ(h) (Homo sapiens, UniProt Q04759)
T29 construct: purchased Eurofins Pharma Discovery Services UK Limited
Excerpt: as §1

PKD2(h) = target: T30, PKD2(h) (Homo sapiens, UniProt Q9BZL6)
T30 construct: purchased Eurofins Pharma Discovery Services UK Limited
T30 sequence (Q9BZL6 whole entry): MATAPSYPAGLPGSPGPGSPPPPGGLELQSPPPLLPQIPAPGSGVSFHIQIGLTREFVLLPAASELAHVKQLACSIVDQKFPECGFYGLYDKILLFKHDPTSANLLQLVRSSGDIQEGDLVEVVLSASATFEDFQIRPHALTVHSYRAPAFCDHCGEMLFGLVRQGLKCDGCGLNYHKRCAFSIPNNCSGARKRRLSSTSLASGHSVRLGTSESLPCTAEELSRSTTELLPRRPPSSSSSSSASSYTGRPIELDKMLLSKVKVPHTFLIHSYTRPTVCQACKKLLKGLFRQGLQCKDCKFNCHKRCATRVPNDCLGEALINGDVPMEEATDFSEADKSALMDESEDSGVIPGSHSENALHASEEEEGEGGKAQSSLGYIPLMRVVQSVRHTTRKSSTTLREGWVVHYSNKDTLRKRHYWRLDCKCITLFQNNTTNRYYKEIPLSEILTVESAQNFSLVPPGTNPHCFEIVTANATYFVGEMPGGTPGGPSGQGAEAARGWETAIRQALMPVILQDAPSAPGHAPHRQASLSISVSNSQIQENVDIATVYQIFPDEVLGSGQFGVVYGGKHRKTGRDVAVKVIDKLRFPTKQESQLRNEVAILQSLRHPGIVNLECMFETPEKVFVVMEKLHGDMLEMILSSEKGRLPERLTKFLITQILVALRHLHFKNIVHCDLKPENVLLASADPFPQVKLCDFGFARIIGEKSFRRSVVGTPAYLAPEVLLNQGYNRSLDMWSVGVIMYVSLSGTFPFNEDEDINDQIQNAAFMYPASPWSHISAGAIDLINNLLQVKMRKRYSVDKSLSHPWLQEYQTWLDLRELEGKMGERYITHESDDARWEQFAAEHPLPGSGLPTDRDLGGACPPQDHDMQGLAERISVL
Excerpt: as §1

Ret(h) = target: T31, Ret(h) (Homo sapiens, UniProt P07949)
T31 construct: purchased Eurofins Pharma Discovery Services UK Limited
Excerpt: as §1

Ron(h) = target: T32, Ron(h) (Homo sapiens, UniProt Q04912)
T32 construct: purchased Eurofins Pharma Discovery Services UK Limited
T32 sequence (Q04912 25-1400): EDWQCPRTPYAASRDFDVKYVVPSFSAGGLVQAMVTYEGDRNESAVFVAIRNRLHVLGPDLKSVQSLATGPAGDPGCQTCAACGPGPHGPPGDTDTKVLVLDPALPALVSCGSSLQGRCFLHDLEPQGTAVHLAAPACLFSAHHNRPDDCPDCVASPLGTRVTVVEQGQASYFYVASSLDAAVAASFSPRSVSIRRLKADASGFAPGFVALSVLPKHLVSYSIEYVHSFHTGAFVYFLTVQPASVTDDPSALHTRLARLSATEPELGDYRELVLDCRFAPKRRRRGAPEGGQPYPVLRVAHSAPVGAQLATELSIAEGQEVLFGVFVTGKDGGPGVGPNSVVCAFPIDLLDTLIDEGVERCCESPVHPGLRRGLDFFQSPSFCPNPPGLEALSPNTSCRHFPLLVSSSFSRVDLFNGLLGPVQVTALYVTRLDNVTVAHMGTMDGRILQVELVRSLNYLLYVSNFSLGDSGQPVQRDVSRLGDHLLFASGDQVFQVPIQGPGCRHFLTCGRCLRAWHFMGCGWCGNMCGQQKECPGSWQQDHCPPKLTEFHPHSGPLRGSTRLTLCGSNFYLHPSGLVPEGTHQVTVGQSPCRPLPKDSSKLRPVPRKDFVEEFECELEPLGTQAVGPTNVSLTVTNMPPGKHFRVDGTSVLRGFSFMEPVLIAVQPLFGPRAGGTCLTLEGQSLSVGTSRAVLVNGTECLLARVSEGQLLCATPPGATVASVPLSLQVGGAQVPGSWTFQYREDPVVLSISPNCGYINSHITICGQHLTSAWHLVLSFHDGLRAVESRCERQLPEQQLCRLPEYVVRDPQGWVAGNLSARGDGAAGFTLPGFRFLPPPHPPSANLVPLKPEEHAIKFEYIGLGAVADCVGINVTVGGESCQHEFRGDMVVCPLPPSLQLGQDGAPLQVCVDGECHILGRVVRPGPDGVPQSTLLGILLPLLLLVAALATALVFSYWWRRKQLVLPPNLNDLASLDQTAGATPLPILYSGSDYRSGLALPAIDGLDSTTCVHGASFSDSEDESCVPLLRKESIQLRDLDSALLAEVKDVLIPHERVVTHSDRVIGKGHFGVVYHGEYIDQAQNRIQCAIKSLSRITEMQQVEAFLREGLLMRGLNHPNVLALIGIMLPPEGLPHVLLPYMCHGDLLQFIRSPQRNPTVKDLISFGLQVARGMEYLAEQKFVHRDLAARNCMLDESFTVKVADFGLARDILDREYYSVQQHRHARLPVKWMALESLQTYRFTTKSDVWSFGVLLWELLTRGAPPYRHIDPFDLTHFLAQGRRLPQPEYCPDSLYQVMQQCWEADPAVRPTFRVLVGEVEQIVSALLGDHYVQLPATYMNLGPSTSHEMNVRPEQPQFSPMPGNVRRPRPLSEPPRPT
Excerpt: as §1

Rsk2(h) = target: T33, Rsk2(h) (Homo sapiens, UniProt P51812)
T33 construct: purchased Eurofins Pharma Discovery Services UK Limited
Excerpt: as §1

Tie2(h) = target: T34, Tie2(h) (Homo sapiens, UniProt Q02763)
T34 construct: purchased Eurofins Pharma Discovery Services UK Limited
Excerpt: as §1

Yes(h) = target: T35, Yes(h) (Homo sapiens, UniProt P07947)
T35 construct: purchased Eurofins Pharma Discovery Services UK Limited
Excerpt: as §1

ZAP-70(h) = target: T36, ZAP-70(h) (Homo sapiens, UniProt P43403)
T36 construct: purchased Eurofins Pharma Discovery Services UK Limited
T36 sequence (P43403 whole entry): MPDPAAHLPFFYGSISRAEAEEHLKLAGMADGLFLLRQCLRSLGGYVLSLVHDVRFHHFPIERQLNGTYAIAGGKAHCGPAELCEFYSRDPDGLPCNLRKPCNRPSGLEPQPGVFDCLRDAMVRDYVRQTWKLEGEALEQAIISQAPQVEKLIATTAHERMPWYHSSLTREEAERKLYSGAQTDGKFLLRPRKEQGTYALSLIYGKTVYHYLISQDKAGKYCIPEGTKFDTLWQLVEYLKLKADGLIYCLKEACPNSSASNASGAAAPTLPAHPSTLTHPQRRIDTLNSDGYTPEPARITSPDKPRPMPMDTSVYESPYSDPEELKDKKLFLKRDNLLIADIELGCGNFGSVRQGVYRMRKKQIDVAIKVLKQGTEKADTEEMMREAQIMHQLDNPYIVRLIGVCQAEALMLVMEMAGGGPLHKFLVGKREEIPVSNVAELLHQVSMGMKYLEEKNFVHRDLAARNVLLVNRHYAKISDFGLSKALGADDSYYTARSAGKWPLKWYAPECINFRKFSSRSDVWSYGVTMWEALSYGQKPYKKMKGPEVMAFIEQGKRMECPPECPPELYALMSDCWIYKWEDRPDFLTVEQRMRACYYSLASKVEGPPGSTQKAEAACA
Excerpt: as §1

c-RAF(h) = target: T37, c-RAF(h) (Homo sapiens, UniProt P04049)
T37 construct: purchased Eurofins Pharma Discovery Services UK Limited (contract testing)
Excerpt: as §1

cKit(h) = target: T38, cKit(h) (Homo sapiens, UniProt P10721)
T38 construct: purchased Eurofins Pharma Discovery Services UK Limited (contract testing)
Excerpt: as §1

mTOR/FKBP12(h) = target: T39, mTOR/FKBP12(h) (Homo sapiens, UniProt P42345)
T39 construct: purchased Eurofins Pharma Discovery Services UK Limited
Excerpt: as §1

inhibition at 10 µM (ALK(h)): 16%
inhibition at 10 µM (Abl(T315I)(h)): -14%
inhibition at 10 µM (Abl(h)): 2%
inhibition at 10 µM (Aurora-A(h)): 1%
inhibition at 10 µM (Axl(h)): 24%
inhibition at 10 µM (B-Raf(h)): -6%
inhibition at 10 µM (Bmx(h)): -7%
inhibition at 10 µM (CDK1/cyclinB(h)): 1%
inhibition at 10 µM (CDK3/cyclinE(h)): 7%
inhibition at 10 µM (CK2(h)): 15%
inhibition at 10 µM (CaMKI(h)): -1%
inhibition at 10 µM (CaMKIIβ(h)): 2%
inhibition at 10 µM (IGF-1R(h), activated): 0%
inhibition at 10 µM (IKKα(h)): 5%
inhibition at 10 µM (Itk(h)): -7%
inhibition at 10 µM (JNK1α1(h)): 4%
inhibition at 10 µM (KDR(h)): -1%
inhibition at 10 µM (MAPK1(h)): 8%
inhibition at 10 µM (MST2(h)): 1%
inhibition at 10 µM (PAK2(h)): 8%
inhibition at 10 µM (PEK(h)): 0%
inhibition at 10 µM [1]: 3%
inhibition at 10 µM (PI3Kinase(p110β/p85α)(h)): -3%
inhibition at 10 µM (PIP4K2α(h)): -2%
inhibition at 10 µM (PIP5K1γ(h)): -1%
inhibition at 10 µM (PKBγ(h)): 8%
inhibition at 10 µM (PKCε(h)): -1%
inhibition at 10 µM (PKCη(h)): 2%
inhibition at 10 µM (PKCθ(h)): -3%
inhibition at 10 µM (PKD2(h)): 11%
inhibition at 10 µM (Ret(h)): 7%
inhibition at 10 µM (Ron(h)): 8%
inhibition at 10 µM (Rsk2(h)): 4%
inhibition at 10 µM (Tie2(h)): 14%
inhibition at 10 µM (Yes(h)): -2%
inhibition at 10 µM (ZAP-70(h)): -5%
inhibition at 10 µM (c-RAF(h)): -3%
inhibition at 10 µM (cKit(h)): 7%
inhibition at 10 µM (mTOR/FKBP12(h)): 33%
Compound: C=C(C)n1c(=O)n(C(C)=O)c2ncc(Br)cc21 [FD162]
